Measurements from ChEMBL document CHEMBL1201862, “PubChem BioAssay data set” (2004).
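Interpolation was linear, between the two tested concentrations surrounding the appropriate level; five concentrations were tested over 48 hours in 96-well plates. At the GI50, growth is halved.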 Calls of active or inactive are those of the source. Cut-off read from the data, not from the text of the source: active = GI50 up to about 1.1 µM and inactive = higher.

Legend:
Assay in all cases: NCI tumour cell line growth inhibition, 48 h
ACHN = tested on: ACHN
CCRF-CEM = tested on: CCRF-CEM
DU-145 = tested on: DU-145
HCC 2998 = tested on: HCC 2998
HL-60 = tested on: HL-60
HOP-62 = tested on: HOP-62
KM12 = tested on: KM12
LOX IMVI = tested on: LOX IMVI
M14 = tested on: M14
NCI/ADR-RES = tested on: NCI/ADR-RES
OVCAR-8 = tested on: OVCAR-8
PC-3 = tested on: PC-3
SF-295 = tested on: SF-295
SF-539 = tested on: SF-539
SK-MEL-28 = tested on: SK-MEL-28
SNB-75 = tested on: SNB-75
SR = tested on: SR
SW-620 = tested on: SW-620
UACC-257 = tested on: UACC-257
UO-31 = tested on: UO-31

Row | Structure (SMILES) | GI50 (ACHN) | GI50 (CCRF-CEM) | GI50 (DU-145) | GI50 (HCC 2998) | GI50 (HL-60) | GI50 (HOP-62) | GI50 (KM12) | GI50 (LOX IMVI) | GI50 (M14) | GI50 (NCI/ADR-RES) | GI50 (OVCAR-8) | GI50 (PC-3) | GI50 (SF-295) | GI50 (SF-539) | GI50 (SK-MEL-28) | GI50 (SNB-75) | GI50 (SR) | GI50 (SW-620) | GI50 (UACC-257) | GI50 (UO-31)
1 | CC(=O)Nc1c2sscc-2n(C)c1=O [THIOLUTIN] | 0.984 µM (active) | 0.282 µM (active) | 0.634 µM (active) | 0.587 µM (active) | 0.512 µM (active) | 1.67 µM (inactive) | 1.32 µM (inactive) | 1.86 µM (inactive) | 0.314 µM (active) | 1.16 µM (inactive) | 0.638 µM (active) | 1.58 µM (inactive) | 1.35 µM (inactive) | 1.86 µM (inactive) | 1.37 µM (inactive) | 1.67 µM (inactive) | 0.235 µM (active) | 0.664 µM (active) | 1.57 µM (inactive) | 2.1 µM (inactive)
2 | COC1=CC(=O)C2=C(C1=O)[C@H]1CC[C@]3(C)[C@@H](O)CC[C@H]3[C@@H]1CC2 | 18 µM (inactive) | 6.67 µM (inactive) | 17.2 µM (inactive) | 20.7 µM (inactive) | 13 µM (inactive) | 16.2 µM (inactive) | 18.4 µM (inactive) | 19.8 µM (inactive) | 17.5 µM (inactive) | 27.5 µM (inactive) | 17.8 µM (inactive) | 16.4 µM (inactive) | 16.7 µM (inactive) | 16.9 µM (inactive) | 18.9 µM (inactive) | 17.9 µM (inactive) | 23.3 µM (inactive) | 32.7 µM (inactive) | 16.4 µM (inactive) | 20.7 µM (inactive)
3 | Cc1ccc([N+](=O)[O-])cc1S(=O)(=O)Nc1ccc(C2=NOC(c3ccco3)C2)cc1 (stereo not given) | 21.3 µM (inactive) | 18 µM (inactive) | 20.2 µM (inactive) | 17.2 µM (inactive) | 21.3 µM (inactive) | 12.6 µM (inactive) | 11.8 µM (inactive) | 17.3 µM (inactive) | 15.3 µM (inactive) | 14.5 µM (inactive) | 39.2 µM (inactive) | 15.7 µM (inactive) | 14.1 µM (inactive) | 23 µM (inactive) | 18.2 µM (inactive) | 18.7 µM (inactive) | 3.33 µM (inactive) | 18.7 µM (inactive) | 17.6 µM (inactive) | 16.9 µM (inactive)
4 | CC(=O)NC1COC(COC(=O)CCCCCCCCCCNC(=O)c2ccc([N+](=O)[O-])c3c(=O)c4ccccc4[nH]c23)C(O)C1OC(C)C(=O)NC(C(=O)NC(CCC(N)=O)C(=O)OCc1ccccc1)C(C)C (stereo not given) | 14.8 µM (inactive) | 20.8 µM (inactive) | 5.79 µM (inactive) | 5.96 µM (inactive) | 0.445 µM (active) | 7.45 µM (inactive) | 4.85 µM (inactive) | 11.5 µM (inactive) | 35 µM (inactive) | 32.9 µM (inactive) | 12.6 µM (inactive) | 8.05 µM (inactive) | 22 µM (inactive) | 20.8 µM (inactive) | 11.9 µM (inactive) | 14.4 µM (inactive) | 7.08 µM (inactive) | 26.6 µM (inactive) | 15.3 µM (inactive) | 8.41 µM (inactive)
5 | O=C1/C(=C\c2cccc(Oc3ccccc3)c2)S(=O)(=O)C(c2ccccc2)N1c1ccc(Cl)cc1 (stereo not given) | 12.9 µM (inactive) | 12.3 µM (inactive) | 19.1 µM (inactive) | 56.1 µM (inactive) | 13.2 µM (inactive) | 27.8 µM (inactive) | 24 µM (inactive) | 10.4 µM (inactive) | 14 µM (inactive) | 17.3 µM (inactive) | 16.9 µM (inactive) | 17.1 µM (inactive) | 5.28 µM (inactive) | 23.7 µM (inactive) | 17.8 µM (inactive) | 30.4 µM (inactive) | 8.2 µM (inactive) | 16.7 µM (inactive) | 24 µM (inactive) | 13.7 µM (inactive)
6 | O=C(CCN1CC2CCC(CC2)C1)c1cccs1 | 18.7 µM (inactive) | 1.94 µM (inactive) | 17.6 µM (inactive) | 15.6 µM (inactive) | 20.7 µM (inactive) | 19.3 µM (inactive) | 19.9 µM (inactive) | 10.7 µM (inactive) | 16.4 µM (inactive) | 24.6 µM (inactive) | 18.7 µM (inactive) | 16.7 µM (inactive) | > 100 µM (inactive) | 20.9 µM (inactive) | 17.1 µM (inactive) | 19.2 µM (inactive) | 4.49 µM (inactive) | 2.79 µM (inactive) | 16.1 µM (inactive) | 8.77 µM (inactive)
7 | Cc1c(-c2ccccc2)c(C#N)c2nnn(C)c(=O)n12 | > 100 µM (inactive) | > 100 µM (inactive) | > 100 µM (inactive) | > 100 µM (inactive) | > 100 µM (inactive) | 44 µM (inactive) | > 100 µM (inactive) | > 100 µM (inactive) | > 100 µM (inactive) | > 100 µM (inactive) | > 100 µM (inactive) | 64.3 µM (inactive) | 68.9 µM (inactive) | > 100 µM (inactive) | > 100 µM (inactive) | 42.8 µM (inactive) | 65.6 µM (inactive) | > 100 µM (inactive) | > 100 µM (inactive) | > 100 µM (inactive)
8 | c1ccc2c3ccn4ccc5c6ccccc6[nH]c5c4c-3nc2c1 | 1.43 µM (inactive) | 0.31 µM (active) | 1.43 µM (inactive) | 0.453 µM (active) | 0.935 µM (active) | 1.31 µM (inactive) | 0.908 µM (active) | 0.202 µM (active) | 1.85 µM (inactive) | 1.72 µM (inactive) | 0.246 µM (active) | 1.39 µM (inactive) | 1.46 µM (inactive) | 1.55 µM (inactive) | 1.7 µM (inactive) | 1.57 µM (inactive) | 0.0594 µM (active) | 0.169 µM (active) | 2 µM (inactive) | 1.39 µM (inactive)
9 | Cc1c(C(=O)NNc2ccccc2)n2c(S)nnc2c2ccccc12 | > 100 µM (inactive) | > 100 µM (inactive) | > 100 µM (inactive) | 71.8 µM (inactive) | > 100 µM (inactive) | > 100 µM (inactive) | > 100 µM (inactive) | > 100 µM (inactive) | > 100 µM (inactive) | > 100 µM (inactive) | > 100 µM (inactive) | > 100 µM (inactive) | 54.6 µM (inactive) | > 100 µM (inactive) | 86.7 µM (inactive) | > 100 µM (inactive) | 74.3 µM (inactive) | > 100 µM (inactive) | > 100 µM (inactive) | 73.1 µM (inactive)
